The values below come from ChEMBL document CHEMBL5104171 (Bioorg Med Chem Lett, 2022).

Data set [1] is described as follows: Inhibition of RANKL-induced human osteoclast precursor cells differentiation in presence of human M-CSF and measured by tartrate-resistant acid phosphatase activity assay. The class given is functional, cell-based.
Data set [2] can be described thus: Plasma concentration in DBA/1 mouse at 15 mg/kg, po administered once daily for 6 days and measured at 2 hrs. It counts as ADME, organism-based. Conditions: time 6 day.
The nature of data set [3]: Plasma concentration in DBA/1 mouse at 15 mg/kg, po administered once daily for 6 days and measured at 4 hrs. The class given is ADME, organism-based. The conditions noted are these: time 6 day.
A short description of data set [4]: Plasma concentration in DBA/1 mouse at 15 mg/kg, po administered once daily for 6 days and measured at 6 hrs. Conditions: time 6 day. The class given is ADME, organism-based.
Data set [5] can be described thus: Plasma concentration in DBA/1 mouse at 15 mg/kg, po administered once daily for 6 days and measured at 8 hrs. It counts as ADME, organism-based. The conditions noted are these: time 6 day.
Data set [6] can be described thus: Plasma concentration in DBA/1 mouse at 15 mg/kg, po administered once daily for 6 days and measured at 12 hrs. It counts as ADME, organism-based. The conditions noted are these: time 6 day.
The nature of data set [7]: Plasma concentration in DBA/1 mouse at 15 mg/kg, po administered once daily for 6 days and measured at 18 hrs. Conditions: time 6 day. It counts as ADME, organism-based.
The nature of data set [8]: Plasma concentration in DBA/1 mouse at 15 mg/kg, po administered once daily for 6 days and measured at 24 hrs. The class given is ADME, organism-based. The conditions noted are these: time 6 day.
Data set [9] can be described thus: Aqueous solubility of compound at pH 7.4. It counts as physicochemical.
Data set [10] in a line: Permeability across apical to basolateral side in human Caco-2 cells. The class given is ADME, cell-based. The conditions noted are these: read-out: permeability. (Caco-2 cells form a polarised layer with tight junctions and transporters.)
Data set [11] is described as follows: Plasma protein binding in mouse. It counts as ADME, cell-free. Conditions: read-out: PPB (converted).
Data set [12] is described as follows: Plasma protein binding in human. The class given is ADME, cell-free. The conditions noted are these: read-out: PPB (converted).
A short description of data set [13]: Metabolic stability in mouse liver microsomes assessed as compound remaining at 60 mins. Conditions: read-out: Stability. It counts as ADME, Microsome. Background: Liver microsomes are a subcellular fraction often used to study metabolism.
Data set [14] in a line: Metabolic stability in human liver microsomes assessed as compound remaining at 60 mins. It counts as ADME, Microsome. The conditions noted are these: read-out: Stability.
A short description of data set [15]: animal or person. Conditions: Mus musculus, DBA/1, 144 h, read-out: INH.
Data set [16] can be described thus: animal or person. Conditions: Mus musculus, DBA/1, 144 h, read-out: INH. The source holds these as a separate data set.
Data set [17] in a line: animal or person. The conditions noted are these: Mus musculus, DBA/1, 144 h, read-out: INH. The source holds these as a separate data set.
The nature of data set [18]: animal or person. Conditions: Mus musculus, DBA/1, 144 h, read-out: INH. The source holds these as a separate data set.
A short description of data set [19]: animal or person. The conditions noted are these: Mus musculus, DBA/1, 144 h, read-out: INH. The source holds these as a separate data set.
Data set [20] is described as follows: animal or person. The conditions noted are these: Mus musculus, DBA/1, 144 h, read-out: INH. This is another data set of the same source.
Data set [21] can be described thus: animal or person. The conditions noted are these: Mus musculus, DBA/1, 144 h, read-out: INH. This is another data set of the same source.
Data set [22] has as its target Hepatocyte growth factor receptor (Homo sapiens, UniProt P08581). Description: Inhibition of N-terminal His-Glu-TEV-tagged MET (unknown origin) (1050 to 1360 residues) measured by spectrophotometric analysis.

In brackets after ≈: the same amount, converted by molar mass. A value given as a limit tells only on which side of the number the result lay.

Chain of Hepatocyte growth factor receptor (P08581 whole entry, the tested form may be a part): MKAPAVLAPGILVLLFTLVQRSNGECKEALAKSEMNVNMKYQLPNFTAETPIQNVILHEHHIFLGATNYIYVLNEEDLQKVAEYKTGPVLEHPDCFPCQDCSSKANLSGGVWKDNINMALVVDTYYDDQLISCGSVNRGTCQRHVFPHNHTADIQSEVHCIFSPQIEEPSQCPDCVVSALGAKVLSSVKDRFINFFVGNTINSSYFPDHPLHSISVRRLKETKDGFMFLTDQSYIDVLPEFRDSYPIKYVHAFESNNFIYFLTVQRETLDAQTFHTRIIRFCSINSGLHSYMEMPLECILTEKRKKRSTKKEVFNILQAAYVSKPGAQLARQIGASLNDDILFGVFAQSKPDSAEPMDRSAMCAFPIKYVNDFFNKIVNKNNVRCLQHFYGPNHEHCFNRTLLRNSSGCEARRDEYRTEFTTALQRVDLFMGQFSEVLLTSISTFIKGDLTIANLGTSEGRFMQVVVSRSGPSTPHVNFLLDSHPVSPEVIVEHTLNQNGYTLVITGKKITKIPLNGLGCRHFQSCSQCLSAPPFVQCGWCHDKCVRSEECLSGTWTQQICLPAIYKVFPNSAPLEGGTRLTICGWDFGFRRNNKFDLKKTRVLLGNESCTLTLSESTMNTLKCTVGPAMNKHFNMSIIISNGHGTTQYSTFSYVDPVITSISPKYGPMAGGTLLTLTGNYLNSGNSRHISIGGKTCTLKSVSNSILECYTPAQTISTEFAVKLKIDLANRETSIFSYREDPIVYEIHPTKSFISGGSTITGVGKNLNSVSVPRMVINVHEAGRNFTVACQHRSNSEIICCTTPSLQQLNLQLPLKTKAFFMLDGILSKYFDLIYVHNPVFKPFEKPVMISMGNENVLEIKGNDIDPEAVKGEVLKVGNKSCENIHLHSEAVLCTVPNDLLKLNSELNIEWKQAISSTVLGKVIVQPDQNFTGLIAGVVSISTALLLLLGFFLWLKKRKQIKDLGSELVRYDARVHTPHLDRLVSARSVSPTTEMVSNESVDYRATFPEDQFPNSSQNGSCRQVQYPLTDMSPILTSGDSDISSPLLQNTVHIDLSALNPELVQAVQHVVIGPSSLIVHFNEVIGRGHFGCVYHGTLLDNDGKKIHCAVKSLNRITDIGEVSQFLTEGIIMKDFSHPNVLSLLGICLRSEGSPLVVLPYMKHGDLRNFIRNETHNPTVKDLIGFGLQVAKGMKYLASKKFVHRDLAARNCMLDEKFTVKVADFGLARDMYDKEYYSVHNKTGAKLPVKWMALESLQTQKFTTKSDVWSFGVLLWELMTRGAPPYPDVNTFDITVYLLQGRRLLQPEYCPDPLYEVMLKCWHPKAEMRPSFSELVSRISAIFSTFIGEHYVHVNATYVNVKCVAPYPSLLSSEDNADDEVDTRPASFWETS

In the case of `CN(C)CC(=O)N1CCC(c2ccc(NC(=O)c3nc(C#N)c[nH]3)c(C3=CCCCC3)c2)CC1`, the IC50 (in general, the concentration that inhibits the measured activity by half) in data set [1] is 1.7 nM.
As to `Cc1nc(NC(=O)NC(=O)C(C)(C)C)ccc1Oc1ccnc(-c2cnn(C)c2)c1`, the concentration at 144 h in data set [2] stood at 2250 ng/mL; in data set [3] it was 1860 ng/mL; in data set [4], 1430 ng/mL; in data set [5] it was 1350 ng/mL; in [6], 163 ng/mL; in [7] it was 125 ng/mL. In [8], the concentration at 144 h was 86 ng/mL. Further, the concentration in solution in data set [9] (solubility) was 95.6 µM (≈ 39 µg/mL). In addition, the Papp A→B in [10] is 13.9 ×10⁻⁶ cm/s. Besides, the fraction unbound was 0.041 in data set [11] and 0.023 in data set [12]. Moreover, the remaining at 1 h in data set [13] came to 91%; in [14], 100%. For the same molecule, the inhibition in vivo at 15 mg/kg amounted to 88% in “animal or person [15]”; 89% in the data set “animal or person [16]”; 94% in “animal or person [17]”; 75% in the data set “animal or person [18]”; 14% in the data set “animal or person [19]”; 18% in the data set “animal or person [20]”. Moreover, the inhibition in vivo at 15 mg/kg in the data set “animal or person [21]” is -4%.
The molecule `FC(F)(F)c1ccc(CNc2ccc(Cc3c[nH]c4ncc(Cl)cc34)cn2)cn1` [PEXIDARTINIB] had an IC50 in data set [22] above 3300 nM.
